We go through six compounds from DBAASP.

Some test systems named below: Yersinia enterocolitica; Candida krusei ATCC 6258; Candida albicans PEEC 2; Candida albicans DBFIQ 1; Staphylococcus aureus; Escherichia coli; Bacillus subtilis PY22; Escherichia coli 780; Staphylococcus aureus 75; Escherichia coli 804.
Common to all, as to test: ≥ marks a high value that may be exact or a test limit, other limits are often not marked, values filed in µg/mL are converted to µM
Assay [1] has as its system Staphylococcus aureus ATCC 25923.
Assay [2] has as its system Pseudomonas aeruginosa ATCC 27853.
The test system of assay [3] is Candida albicans ATCC 10231.
The subject of assay [4] is Candida parapsilosis ATCC 90018.
For assay [5], the system named is Staphylococcus aureus ATCC 29213.
For assay [6], the system named is Candida tropicalis ATCC 750.
The test system of assay [7] is Escherichia coli ATCC 25922.
Assay [8] deals with Candida glabrata ATCC 2001.
Assay [9] has as its system Enterococcus faecalis ATCC 29212.
In assay [10] the test system is Candida tropicalis DBFIQ 3.
The test system of assay [11] is Escherichia coli ATCC 35218.
Assay [12] has as its system Staphylococcus aureus BSF FBCB1313.
Assay [13] has as its system Bifidobacterium longum subsp. infantis.
Assay [14] concerns Escherichia coli DH5alpha.
The test system of assay [15] is Acinetobacter baumannii ATCC 19606(GenR).
Assay [16] relates to Staphylococcus epidermidis ATCC 12228.
Assay [17] deals with Pseudomonas aeruginosa ATCC 27853(CipR).
Assay [18] has as its system Acinetobacter baumannii ATCC 19606(CipR).
The test system of assay [19] is Acinetobacter baumannii ATCC 19606.
Assay [20] deals with Staphylococcus aureus 113.
For assay [21], the system named is Pseudomonas aeruginosa ATCC 27853(RifR).
The test system of assay [22] is Pseudomonas aeruginosa ATCC 27853(GenR).
The subject of assay [23] is Klebsiella pneumoniae ATCC 700603(CipR).
The test system of assay [24] is Klebsiella pneumoniae ATCC 700603.
For assay [25], the system named is Acinetobacter baumannii 97830.
Assay [26] deals with Pseudomonas aeruginosa ATCC 27853(ImiR).
The test system of assay [27] is Acinetobacter baumannii 9931.
The subject of assay [28] is Acinetobacter baumannii ATCC 19606(RifR).
In assay [29] the test system is Pseudomonas aeruginosa ATCC 9027.
For assay [30], the system named is Pseudomonas aeruginosa 50.
Assay [31] has as its system Escherichia coli ATCC 25922(ImiR).
In assay [32] the test system is Klebsiella pneumoniae ATCC 700603(ImiR).
Assay [33] concerns Klebsiella pneumoniae ATCC 700603(GenR).
Assay [34] has as its system Escherichia coli ATCC 25922(CipR).
The subject of assay [35] is Escherichia coli ATCC 25922(GenR).
Assay [36] concerns Bacillus subtilis ATCC 23857.
Assay [37] deals with Klebsiella pneumoniae ATCC 700603(RifR).
In assay [38] the test system is Escherichia coli ATCC 25922(RifR).
Assay [39] concerns Acinetobacter baumannii ATCC 19606(ImiR).

≈ marks a conversion by molar mass, not a printed value. Where “and” joins values, the source holds several entries; their conditions need not be identical. Identical values can stand only once.

As to `CC[C@H](C)[C@H](NC(=O)[C@H](CCC(N)=O)NC(=O)[C@H](Cc1cnc[nH]1)NC(=O)[C@@H](NC(=O)[C@@H]1CCCN1C(=O)[C@H](CC(N)=O)NC(=O)[C@H](CC(C)C)NC(=O)[C@H](CC(C)C)NC(=O)[C@H](CC(C)C)NC(=O)[C@@H](N)CCC(=O)O)[C@@H](C)O)C(=O)N[C@@H](Cc1ccc(O)cc1)C(=O)N1CCC[C@H]1C(=O)N[C@H](C(=O)N[C@H](C(=O)N[C@@H](CCC(N)=O)C(=O)N1CCC[C@H]1C(=O)N[C@@H](CC(C)C)C(=O)N[C@@H](C)C(=O)N1CCC[C@H]1C(=O)N[C@H](C(=O)O)C(C)C)[C@@H](C)O)C(C)C` [ELLLNPTHQIYPVTQPLAPV], the MIC in the assay on Yersinia enterocolitica is no less than 89.1 µM; in assay [1] it was 89.1 µM (≈ 200 µg/mL).

With `CC[C@H](C)[C@H](NC(=O)CN)C(=O)N[C@@H](CC(C)C)C(=O)N[C@@H](CC(=O)O)C(=O)N[C@H](C(=O)N[C@@H](CCCCN)C(=O)N[C@@H](CC(N)=O)C(=O)N[C@@H](CCCCN)C(=O)N[C@H](C(=O)N[C@@H](CO)C(=O)N[C@@H](CC(N)=O)C(=O)N[C@@H](CC(C)C)C(=O)N[C@@H](Cc1ccccc1)C(N)=O)C(C)C)[C@@H](C)CC` [GILDIKNKVSNLF], the minimum inhibitory concentration (MIC) in assay [2] was 62.5 µM (≈ 91.2 µg/mL); in assay [3] it was 62.5 µM (≈ 91.2 µg/mL); in assay [4], no less than 125 µM; in [5] it was 31.2 µM (≈ 45.5 µg/mL); in assay [6], 31.2 µM (≈ 45.5 µg/mL); in assay [7], 62.5 µM (≈ 91.2 µg/mL). In addition, the MIC in assay [8] is no less than 250 µM; against Candida krusei ATCC 6258, no less than 62.5 µM.

With `CC(C)C[C@H](NC(=O)[C@@H](N)CCCCN)C(=O)N[C@@H](Cc1ccccc1)C(=O)N[C@@H](CCCCN)C(N)=O` [KLFK], the minimal inhibitory concentration (MIC) was greater than 240 µM in [2]; greater than 240 µM in [9]; greater than 240 µM in assay [1]; no less than 480 µM in assay [10]; no less than 240 µM in assay [11]; no less than 480 µM with Candida albicans PEEC 2. For the same compound, the MIC in the assay on Candida albicans DBFIQ 1 was no less than 480 µM; in assay [12], no less than 240 µM.

As for `CC[C@H](C)[C@H](NC(=O)[C@@H](NC(=O)[C@@H]1CCCN1C(=O)[C@H](CC(C)C)NC(=O)[C@H](C)NC(=O)[C@H](CO)NC(=O)[C@@H](NC(=O)[C@@H](N)CCSC)[C@@H](C)O)[C@@H](C)CC)C(=O)N[C@@H](CCC(N)=O)C(=O)N[C@@H](CCCCN)C(=O)O` [MTSALPIIQK], the MIC in assay [13] is no less than 2720 µM; in the assay on Staphylococcus aureus, greater than 2720 µM; with Escherichia coli it was greater than 2720 µM.

Regarding `CC(=O)N[C@@H](CCCN=C(N)N)C(=O)N[C@@H](Cc1c[nH]c2ccccc12)C(=O)N[C@@H](CCCN=C(N)N)C(=O)N[C@@H](Cc1ccccc1)C(=O)N[C@@H](Cc1c[nH]c2ccccc12)C(=O)N[C@@H](CCCN=C(N)N)C(N)=O` [RWRFWR], the MIC with Bacillus subtilis PY22 is 31.3 µM (≈ 32.8 µg/mL); in [14], no less than 125 µM.

As for `NCCCC[C@H](NC(=O)[C@H](CCCN=C(N)N)NC(=O)[C@H](Cc1c[nH]c2ccccc12)NC(=O)[C@H](CCCCN)NC(=O)[C@H](CCCN=C(N)N)NC(=O)[C@H](Cc1c[nH]c2ccccc12)NC(=O)[C@H](CCCCN)NC(=O)[C@H](CCCN=C(N)N)NC(=O)[C@H](Cc1c[nH]c2ccccc12)NC(=O)[C@H](CCCCN)NC(=O)[C@H](CCCN=C(N)N)NC(=O)[C@H](Cc1c[nH]c2ccccc12)NC(=O)[C@H](CCCCN)NC(=O)[C@H](CCCN=C(N)N)NC(=O)[C@@H](N)Cc1c[nH]c2ccccc12)C(N)=O` [WRKWRKWRKWRKWRK], the MIC stood at 16 µM (≈ 37.9 µg/mL) in assay [15]; 2 µM (≈ 4.74 µg/mL) in assay [16]; 4 µM (≈ 9.48 µg/mL) in [17]; 4 µM (≈ 9.48 µg/mL) in [2]; 4 µM (≈ 9.48 µg/mL) in the assay with Escherichia coli 780; 8 µM (≈ 19 µg/mL) in assay [18]. The MIC in [19] is 8 µM (≈ 19 µg/mL); in [20], 2 µM (≈ 4.74 µg/mL); in assay [1], 4 µM and 8 µM; in [21], 4 µM (≈ 9.48 µg/mL); in [5], 4 µM (≈ 9.48 µg/mL); in assay [22] it was no less than 32 µM. Moreover, the MIC came out at 16 µM (≈ 37.9 µg/mL) in [23]; 8 µM (≈ 19 µg/mL) in assay [24]; 4 µM (≈ 9.48 µg/mL) in assay [25]; 8 µM (≈ 19 µg/mL) in assay [26]; 8 µM (≈ 19 µg/mL) in assay [27]; 8 µM (≈ 19 µg/mL) in assay [28]. In addition, the MIC came out at 4 µM (≈ 9.48 µg/mL) in assay [29]; 2 µM (≈ 4.74 µg/mL) in [30]; 16 µM (≈ 37.9 µg/mL) in [31]; 16 µM (≈ 37.9 µg/mL) in assay [32]; 16 µM (≈ 37.9 µg/mL) in assay [33]; 8 µM (≈ 19 µg/mL) in assay [34]. Moreover, the MIC with Staphylococcus aureus 75 is 4 µM (≈ 9.48 µg/mL); in assay [35], 8 µM (≈ 19 µg/mL); in [36] it was 2 µM (≈ 4.74 µg/mL); in assay [37], 16 µM (≈ 37.9 µg/mL); in [38] it was 16 µM (≈ 37.9 µg/mL); in the assay with Escherichia coli 804, 16 µM (≈ 37.9 µg/mL). Further, in assay [39], the MIC amounted to 16 µM (≈ 37.9 µg/mL).
